Counter-ions that a name gives are not always drawn.

These results are taken from patent publication US8552201B2, “5, 6-bisaryl-2-pyridine-carboxamide derivatives, preparation and application thereof in therapeutics as urotensin II receptor antagonists” (Sanofi, priority 2006, dated 2013).

Assay [1] deals with T1, human GPR14 receptor (Homo sapiens, UniProt Q9UKP6).
T1 construct: expressed in transfected cells; host or cells: CHO cells (CHOGPR14)
T1 sequence (Q9UKP6 1-389): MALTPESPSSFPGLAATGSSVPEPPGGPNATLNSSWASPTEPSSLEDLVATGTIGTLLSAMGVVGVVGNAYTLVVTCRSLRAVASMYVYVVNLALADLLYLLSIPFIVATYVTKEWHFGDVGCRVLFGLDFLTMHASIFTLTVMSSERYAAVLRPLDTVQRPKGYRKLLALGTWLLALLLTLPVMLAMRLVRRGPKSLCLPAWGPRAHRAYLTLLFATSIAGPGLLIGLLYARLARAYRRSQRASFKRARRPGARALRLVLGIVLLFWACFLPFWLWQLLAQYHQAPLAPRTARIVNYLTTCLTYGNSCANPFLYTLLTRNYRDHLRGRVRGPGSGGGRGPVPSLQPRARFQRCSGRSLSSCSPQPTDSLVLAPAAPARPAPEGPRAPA
The assay can be described thus: FlipR test of intracellular calcium mobilization (CHO GPR14 cells, urotensin II 3 nM). It counts as cell-based. The note with it: CHOGPR14 cells, inhibition of urotensin II (3 nM final) induced Ca2+ increase, Fluo-4AM. The source says: (§1) The compounds according to the invention have undergone pharmacological testing for determining the properties of the compounds of the invention, including in particular: • a test in vitro of intracellular calcium mobilization (FlipR test) employing urotensin II antagonists (the compounds of the present invention) of the human GPR14 receptor, • a function test of contraction of rat aorta rings, also employing urotensin II antagonists represented by the compounds of the present invention.
1. FlipR (Fluorometric Imaging Plate Reader) Protocol
The purpose is to measure the activation of the GPR14 receptor by human urotensin II.
GPR14 is a Gq-coupled receptor with 7 transmembrane domains. Its activation by a specific ligand causes an increase in Ca^2+ in the cell via the PLC (Phospholipase C), IP3 (Inositol-1,4,5-triphosphate) DAG (Diacylglycerol) pathway. The increase in Ca^2+ in the cell is measured by means of the Fluo4AM permeating probe (mono-excitation, mono-emission probe) which binds to free Ca^2+ and emits at 520 nm. The free probe is non-fluorescent in the absence of Ca^2+.
1) Seeding of the cells on D−1 (Day−1) or D−2
2) Incorporation/loading (D0) of the probe (1 h)
3) Addition of the products to the FlipR and measurement
4) Addition of the ligand to the FlipR and measurement in the presence of the products
5) Processing and exporting the data
The cells are cultivated in complete medium in Flask T225. For the experiments, the cells are transplanted in 200 μl of culture medium in 96-well (black, transparent-bottom) plates at a rate of 60 000 cells/well for use on D+1 or 40 000 cells/well for use on D+2.
The Fluo-4AM is prepared at 20 mM then aliquots are taken (50 μl) and stored at −20° C. away from the light. A solution of pluronic acid at 200 mg/ml in DMSO is also prepared (it has a shelf life of one week at room temperature away from the light).
The cells are charged with the Fluo-4AM+pluronic acid mixture (aliquot 50 μl+50 μl of pluronic acid) diluted to 1/100 in the measurement buffer.
After washing the wells with 150 μl of measurement buffer (cf. annex), the cells are then charged as follows: • distribution of 100 μl of measurement buffer in each well • addition of 10 μl of the Fluo-4AM+pluronic acid mixture diluted to 1/100.
The cells are incubated for 1 h at 37° C. away from the light, in an incubator in the presence of 5% CO2.
The cells are then washed 3 times with 150 μl of measurement buffer to remove the excess of the probe. A volume of 150 μl of buffer is added to each well at the end of washing.
After incubating the plates for 20 min at room temperature away from the light, they are placed in the FlipR for measurement of fluorescence.
The level of basic incorporation of the Fluo-4 is checked for each plate (sd<10%) before the first injection.
After stabilization of the basic signal, the GPR14 inhibiting compounds are injected by the FlipR under a volume of 50 μl from a dilution plate effected with Biomek 2000 in measurement buffer. […] Data recording is carried out continuously throughout the experiment.
For each plate, the basic fluorescence before injection of the compounds is standardized by the “spatial uniformity correction” function of the FlipR. The values of fluorescence measured just before injection of urotensin II (min) and those of the fluorescence measured at the peak of the effect of urotensin II (max) are exported under Excel. In each plate, a series of wells is treated with urotensin alone in the absence of inhibitor compound. The min and max fluorescence values for these wells are averaged for defining 100% effect of urotensin II. The percentage inhibition calculated for each concentration of inhibitor is calculated as follows: • for each well with Uro II (urotensin II)+inhibitor, calculation of the delta product value=max−min • for the well with Uro II alone, calculation of the value delta Uro II (average max−average min) […]

In assay [2] the target is T2, urotensin II receptors (rat aorta rings) (Rattus norvegicus, UniProt P49684).
T2 construct: The aortas are removed, washed and, after removing the endothelium, are cut into 4 rings; from tissue; host or cells: rat thoracic aorta rings, endothelium removed (Sprague-Dawley)
T2 sequence (P49684 1-386): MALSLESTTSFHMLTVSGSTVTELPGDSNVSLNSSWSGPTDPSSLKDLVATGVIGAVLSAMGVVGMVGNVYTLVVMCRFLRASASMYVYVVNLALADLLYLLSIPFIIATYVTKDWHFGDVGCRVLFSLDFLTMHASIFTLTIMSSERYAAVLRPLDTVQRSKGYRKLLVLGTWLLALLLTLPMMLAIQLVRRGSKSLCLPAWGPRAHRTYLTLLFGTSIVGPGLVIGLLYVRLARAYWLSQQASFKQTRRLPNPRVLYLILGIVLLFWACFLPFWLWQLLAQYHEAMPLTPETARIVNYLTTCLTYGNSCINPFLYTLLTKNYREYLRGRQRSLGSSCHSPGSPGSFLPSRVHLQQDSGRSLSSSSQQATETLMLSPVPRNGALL
The assay can be described thus: Contraction of rat aorta rings induced by human urotensin II. Conditions: endothelium-denuded Sprague-Dawley rat aorta rings, antagonist added 30 min before urotensin II, single concentration.
From the text: as §1
2. Contraction of Rat Aorta
Male Sprague-Dawley rats (400-500 g; C. River, France) are anaesthetized with 6% sodium pentobarbital (Ceva SantéAnimale) by intraperitoneal injection (0.4-0.5 ml), and then euthanized by exsanguination. The aortas are removed, washed and, after removing the endothelium, are cut into 4 rings of about 0.2-0.3 cm. Each fragment is placed in a container for isolated organs, containing 20 mL of Krebs solution with the following composition (mM): NaCl 118; KCl 4.7; MgCl2 1.2; CaCl2 2.6; NaHCO3 25; glucose 11.1; (pH=7.4).
The tissue, maintained at 37° and aerated with a stream of carbogen (95% O2-5% CO2), is connected to a Grass FT03 isometric sensor under a basic strain of 2 g, and to a Gould series 6600 amplifier for recording the variations in strain. Data acquisition is effected automatically on an HP Compaq PC using IOX software (version 2.2) from the company Emka.
After stabilization for 60 min, the viability of the preparation is tested by prestimulation with 60 mM of KCl. This contraction is repeated a second time and the strain that developed will serve as reference (100%) for standardizing the response to urotensin II.
The curve of concentration v. contractile response to urotensin II is then constructed cumulatively until a maximum response is obtained.
A single concentration-response curve is recorded owing to the desensitization effects induced by urotensin II.
The antagonists or the vehicle (DMSO 0.15% maximum) are added to the container 30 min before the agonist.
Human urotensin II is obtained from Bachem Ltd (UK) and is dissolved in 0.1% of BSA.
The responses are expressed as percentage of the maximum contraction observed with KCl. The results represent the mean+/−sem of the individual responses. N corresponds to the number of animals per batch.
Analysis of the sigmoid curves using the Everstat software (De Lean A, Munson P J, Rodbard D., Am J Physiol 1978; 235(2): E97-102.) permitted the EC50 (concentration producing 50% of the maximum response) and the Emax (maximum effect) to be determined.
To evaluate the potency of the antagonists based on a single concentration, the pKb were calculated according to the equation: pKb=−log [antagonist]M+log(concentration-ratio−1) (Furchgott R F, Blaschko H, Muscholl E, editors. Handbook of Exp Pharmacol, Catecholamines, Springer, Berlin Heidelberg N.Y.; 1972; 33:283-335) where concentration-ratio is the EC50 of the agonist in the presence of the antagonist divided by the EC50 of the agonist in the absence of the antagonist.
If several concentrations of antagonist are tested, the pA2 (±confidence limits) is calculated by the Schild plot method (Arunlakshana O and Schild H O, Br J Pharmacol, 1959; 14:48-58).

For the compound `Cc1ccccc1-c1ccc(C(=O)NC2(C(=O)O)C3CC4CC(C3)CC2C4)nc1-c1ccc(Cl)c(OCCCN(C)C)c1` (stereo not shown) [Compound No. 18, 2-({[6-{4-Chloro-3-[3-(dimethylamino)propoxy]phenyl}-5-(2-methylphenyl)pyridin-2-yl]carbonyl}amino)adamantane-2-carboxylic acid hydrochloride], in assay [1], the concentration for half-maximal inhibition (IC50) is 19 nM. The compound also gave an antagonist dissociation constant (Kb) in assay [2] of 316 nM.
In the same order, the values of `Cc1ccccc1-c1ccc(C(=O)N[C@@H](CC(=O)O)C(C)C)nc1-c1ccc(Cl)c(OCCCN(C)C)c1` [compound 37] are 72 nM and 31.6 nM.
In the same order, the values of `Cc1cccnc1-c1ccc(C(=O)NC2(C(=O)O)CCCCC2)nc1-c1ccc(Cl)c(OCCCN(C)C)c1` [compound 58] are 28 nM and 251 nM.
For `Cc1ncccc1-c1ccc(C(=O)NC2(C(=O)O)CCCCC2)nc1-c1ccc(Cl)c(OCCCN(C)C)c1` [compound 61], in that order: 9 nM and 79.4 nM.
As to `CN(C)CCCOc1cc(-c2nc(C(=O)NC3(C(=O)O)CCCCC3)ccc2-c2ncc(Cl)cc2Cl)ccc1Cl` [compound 65, 1-{[(3,5-Dichloro-2′-{4-chloro-3-[3-(dimethylamino)propoxy]phenyl}-2,3′-bipyridin-6′-yl)carbonyl]amino}cyclohexanecarboxylic acid hydrochloride], in assay [1], the IC50 is 32 nM. The same compound had a Kb in assay [2] of 316 nM.
For `Cc1ccc(-c2ccc(C(=O)NC3(C(=O)O)CCCCC3)nc2-c2ccc(Cl)c(OCCCN(C)C)c2)c(C)c1` [compound 66, 1-({[6-{4-Chloro-3-[3-(dimethylamino)propoxy]phenyl}-5-(2,4-dimethylphenyl)pyridin-2-yl]carbonyl}amino)cyclohexanecarboxylic acid hydrochloride], in that order: 4.2 nM and 200 nM.
In the same order, the values of `CCc1ccccc1-c1ccc(C(=O)NC2(C(=O)O)CCCCC2)nc1-c1ccc(Cl)c(OCCCN(C)C)c1` [compound 67] are 13 nM and 200 nM.
In the same order, the values of `Cc1ccc(C)c(-c2ccc(C(=O)NC3(C(=O)O)CCCCC3)nc2-c2ccc(Cl)c(OCCCN(C)C)c2)c1` [compound 70] are 32 nM and 631 nM.
Regarding `Cc1ccccc1-c1ccc(C(=O)NC2(C(=O)O)CCCCCC2)nc1-c1ccc(Cl)c(OCCCN(C)C)c1` [compound 71], the 50% inhibitory concentration (IC50) in assay [1] was found to be 24 nM. In addition, the antagonist dissociation constant (Kb) in assay [2] is 501 nM.
Turning to `Cc1cc(C)n(-c2ccc(C(=O)NC3(C(=O)O)CCCCC3)nc2-c2ccc(Cl)c(OCCCN(C)C)c2)n1` [compound 75, 1-({[6-{4-Chloro-3-[3-(dimethylamino)propoxy]phenyl}-5-(3,5-dimethyl-1H-pyrazol-1-yl)pyridin-2-yl]carbonyl}amino)cyclohexanecarboxylic acid hydrochloride], the IC50 in assay [1] came out at 21 nM. In assay [2], this compound had a Kb of 251 nM.
Turning to `COc1ccc(-c2ccc(C(=O)NC3(C(=O)O)CCCCC3)nc2-c2ccc(Cl)c(OCCCN(C)C)c2)c(Cl)c1` [compound 79], the IC50 in assay [1] was 31 nM. Moreover, in assay [2], the Kb was 158 nM.
For `Cc1ccc(C(C)C)cc1-c1ccc(C(=O)NC2(C(=O)O)CCCCC2)nc1-c1ccc(Cl)c(OCCCN(C)C)c1` [compound 120], in that order: 16 nM and 79.4 nM.
For `Cc1ccc(-c2ncc(C(=O)NC3(C(=O)O)CCCCC3)nc2-c2ccc(Cl)c(OCCCN(C)C)c2)c(C)c1` [compound 123], in that order: 4.2 nM and 316 nM.
In the same order, the values of `Cc1ccccc1-c1nc(N)c(C(=O)NC2(C(=O)O)CCCCC2)nc1-c1ccc(Cl)c(OCCCN(C)C)c1` [compound 129, 1-({[3-amino-6-{4-chloro-3-[3-(dimethylamino)propoxy]phenyl}-5-(2-methylphenyl)pyrazin-2-yl]carbonyl}amino)cyclohexanecarboxylic acid hydrochloride] are 15 nM and 158 nM.
